From patent US20040086995A1, “Beta1, 4-N-Acetylgalactosaminyltransferases, nucleic acids and methods of use thereof” (priority 2002, published 2004)
Values belong to the molecule of their own block, whether it stands above or below them.

Key:
SH-Ceβ4GalNAcT [1] = target: T1, SH-Ceβ4GalNAcT (Caenorhabditis elegans, UniProt Q9GUM2); test: β4GalNAcT assay, sugar nucleotide (donor) specificity; type: biochemical, C. elegans; details: for Relative activity (%): acceptor GlcNAcβ-S-pNP 1 mM, donor 0.5 mM, enzyme on HPC4-beads, 100% = UDP-GalNAc
T1 construct: the catalytic domain of the Ceβ4GalNAcT (beginning at K34, the first amino acid after the transmembrane domain); signal peptide (from vector pcDNA3.1(+)-TH) (N); made in house; host or cells: CHO-Lec8 (and CHO-Lec2) cells, stably transfected; enzyme captured from the culture medium on HPC4-UltraLink beads
Description: (§1) Purification of SH-C.E.β4GalNAcT—Medium containing SH-Ceβ4GalNAcT was centrifuged at 1,500×g for 5 min to remove cellular debris, and then incubated with HPC4-UltraLink beads (5 mg HPC4 antibody per ml of beads; 0.1 ml of beads per ml of medium) for one hour at room temperature on a rotating platform. The beads were collected by centrifugation at 600×g for 3 min, and washed three times with 10 ml of 100 mM sodium cacodylate pH 7.0, 2 mM CaCl2. The beads were then resuspended in the same buffer with the addition of 20 mM MnCl2, and used as the enzyme source. For Western blot analysis, the bound material was released by incubating the beads in a buffer of 50 mM sodium cacodylate pH 7.0, 20 mM EDTA for 10 min at room temperature, then collecting the supernatant.
(§2) β4GalNAcT assays—Standard assays were performed essentially as described previously (40) in a […] reaction mixture containing […] sodium cacodylate pH 7.2, 12.5 nmol UDP-[^3H]GalNAc (2.5 Ci/mol), […] MnCl2, […] ATP, […] Triton X-100, […] beads and acceptor substrate, containing 25 nmol of terminal GlcNAc at the non-reducing end unless otherwise indicated. Control assays lacking the acceptor substrate were carried out to correct for incorporation into endogenous acceptors, and all assays were carried out in duplicate. After incubation at 37° C. for 180 min the reaction was stopped. When oligosaccharides or glycopeptides were the acceptor, the labeled product was separated from unincorporated label by chromatography on a 1-ml column of Dowex 1-X8 (Cl^−-form) according to Easton et al., (44). When oligosaccharide acceptors with hydrophobic aglycon (pNP) were used as the acceptor, the product was isolated using Sep-pak C-18 cartridges (Waters) as described (45). The isolated products were assayed for incorporation of radioactivity by liquid scintillation.

[2] = target: SH-Ceβ4GalNAcT (soluble, HPC4-epitope tagged form of C. elegans UDPGalNAc:GlcNAcβ-R β1,4-N-acetylgalactosaminyltransferase, encoded by Y73E7A.7) (C. elegans); test: cell-based or functional assay
SH-Ceβ4GalNAcT [3] = target: T1, SH-Ceβ4GalNAcT; test: β4GalNAcT assay, effect of α-lactalbumin on acceptor use; type: biochemical, C. elegans; details: for Relative activity (%): UDPGalNAc 0.5 mM, GlcNAc 1 mM or Glc 30 mM
Description: as §1, §2

SH-Ceβ4GalNAcT [4] = target: T1, SH-Ceβ4GalNAcT; test: β4GalNAcT assay, acceptor specificity; type: biochemical, C. elegans
Description: as §1
β4GalNAcT assays—Standard assays were performed essentially as described previously (40) in a […] reaction mixture containing […] sodium cacodylate pH 7.2, 12.5 nmol UDP-[^3H]GalNAc (2.5 Ci/mol), […] MnCl2, […] ATP, […] Triton X-100, […] beads and acceptor substrate, containing 25 nmol of terminal GlcNAc at the non-reducing end unless otherwise indicated. Control assays lacking the acceptor substrate were carried out to correct for incorporation into endogenous acceptors, and all assays were carried out in duplicate. […] The isolated products were assayed for incorporation of radioactivity by liquid scintillation.

T1 sequence (Q9GUM2 30-383 limits assumed): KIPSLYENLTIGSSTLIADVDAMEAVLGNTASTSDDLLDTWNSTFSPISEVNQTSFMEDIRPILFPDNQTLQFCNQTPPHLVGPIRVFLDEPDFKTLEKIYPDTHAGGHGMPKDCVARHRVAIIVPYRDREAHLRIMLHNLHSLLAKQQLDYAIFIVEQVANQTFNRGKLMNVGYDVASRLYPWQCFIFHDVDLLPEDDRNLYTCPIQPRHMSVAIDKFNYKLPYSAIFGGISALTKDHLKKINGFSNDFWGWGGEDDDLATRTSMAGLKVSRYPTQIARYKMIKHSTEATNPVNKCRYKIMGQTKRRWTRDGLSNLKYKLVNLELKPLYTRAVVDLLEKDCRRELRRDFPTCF
Sequence of SH-Ceβ4GalNAcT (soluble, HPC4-epitope tagged form of C. elegans UDPGalNAc:GlcNAcβ-R β1,4-N-acetylgalactosaminyltransferase, encoded by Y73E7A.7) (C. elegans) (Q9GUM2 34-383): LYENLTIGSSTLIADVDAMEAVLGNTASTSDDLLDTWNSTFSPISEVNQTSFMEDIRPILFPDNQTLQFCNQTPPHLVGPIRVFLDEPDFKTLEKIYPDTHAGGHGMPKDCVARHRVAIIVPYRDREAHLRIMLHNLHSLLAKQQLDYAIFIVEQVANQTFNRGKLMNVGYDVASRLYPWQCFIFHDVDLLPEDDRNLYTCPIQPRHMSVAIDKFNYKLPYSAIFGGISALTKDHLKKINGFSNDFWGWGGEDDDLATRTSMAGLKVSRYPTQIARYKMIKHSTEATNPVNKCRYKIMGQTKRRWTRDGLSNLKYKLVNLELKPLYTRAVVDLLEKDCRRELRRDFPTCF

utilization as nucleotide-sugar donor (SH-Ceβ4GalNAcT [1]): did not significantly utilize
Relative activity (%) (SH-Ceβ4GalNAcT [1]): 0.7%
Molecule: CC(=O)N[C@H]1[C@@H](OP(=O)(O)OP(=O)(O)OC[C@H]2O[C@@H](n3ccc(=O)[nH]c3=O)[C@H](O)[C@@H]2O)O[C@H](CO)[C@@H](O)[C@@H]1O [UDP-GlcNAc]

utilization as nucleotide-sugar donor (SH-Ceβ4GalNAcT [1]): efficiently utilized
Relative activity (%) (SH-Ceβ4GalNAcT [1]): 100%
Molecule: CC(=O)N[C@H]1[C@@H](OP(=O)(O)OP(=O)(O)OC[C@H]2O[C@@H](n3ccc(=O)[nH]c3=O)[C@H](O)[C@@H]2O)O[C@H](CO)[C@H](O)[C@@H]1O [UDP-GalNAc]

Relative activity (%) of SH-Ceβ4GalNAcT with Glc (30 mM) as acceptor in the presence of a-lactalbumin (5 mg/ml); 3 without it [2]: 6%
Relative activity (%) of SH-Ceβ4GalNAcT with GlcNAc (1 mM) as acceptor in the presence of a-lactalbumin (5 mg/ml); 100 without it [2]: 40%
Molecule: α-lactalbumin

Relative activity (%) (SH-Ceβ4GalNAcT [3]; with a-Lactalbumin 5 mg/ml): 6%
Relative activity (%) (SH-Ceβ4GalNAcT [3]; without a-Lactalbumin): 3%
Molecule: OC[C@H]1OC(O)[C@H](O)[C@@H](O)[C@@H]1O (stereo partly drawn) [Glc]

utilization as acceptor substrate (SH-Ceβ4GalNAcT [4]): efficiently utilized
Relative activity (%) (SH-Ceβ4GalNAcT [3]; with a-Lactalbumin 5 mg/ml): 40%
Relative activity (%) (SH-Ceβ4GalNAcT [3]; without a-Lactalbumin): 100%
Molecule: CC(=O)N[C@@H]1[C@@H](O)[C@H](O)[C@@H](CO)O[C@H]1O [Acceptor 9, GlcNAc]

B1: a-lactalbumin: modifier protein expressed in lactating mammary glands, associates with β4GalT I and switches its acceptor specificity (protein, UniProt P00709 20-142, looked up)
Alpha-lactalbumin: KQFTKCELSQLLKDIDGYGGIALPELICTMFHTSGYDTQAIVENNESTEYGLFQISNKLWCKSSQVPQSRNICDISCDKFLDDDITDDIMCAKKILDIKGIDYWLAHKALCTEKLEQWLCEKL
effect of α-lactalbumin on acceptor specificity (SH-Ceβ4GalNAcT [3]): did not induce SH-Ceβ4GalNAcT to utilize Glc as an acceptor instead of GlcNAc
